Data taken from ChEMBL document CHEMBL3244073, “1,2,4-Triazole amino nucleosides. 1-beta-D-3'-Amino-3'-deoxyribofuranosyl-1,2,4-triazole-3-carboxamide and related nucleosides” (1977).
The source made the active and inactive calls. No cut-off for these calls is given here.

Tested on: Vaccinia virus
Assay: Antiviral activity against Vaccinia virus Lederle Chorioallantoic assessed as inhibition of virus-induced cytopathogenicity
Format: functional, organism-based
Conditions: Orthopoxvirus vaccinia

SMILES	Activity
N/C(=N/O)c1ncn([C@@H]2O[C@H](CO)[C@@H](N)[C@H]2O)n1	inactive
N/N=C(/N)c1ncn([C@@H]2O[C@H](CO)[C@@H](N)[C@H]2O)n1	inactive
NNC(=O)c1ncn([C@@H]2O[C@H](CO)[C@@H](N)[C@H]2O)n1	inactive
NC(=O)c1ncn([C@@H]2O[C@H](CO)[C@@H](N)[C@H]2O)n1	inactive
NC(=O)c1ncnn1[C@@H]1O[C@H](CO)[C@@H](N)[C@H]1O	inactive
N[C@H]1[C@@H](O)[C@H](n2cnc(C(=O)NO)n2)O[C@@H]1CO	inactive
